Data from the supplement of paper PMC10307832.

Experiments:
Assay in all cases: relative viability (nuclei count vs DMSO), 5 days (fraction); higher = more cells survive
ABC-1 = tested on: ABC-1
How it was run: (§1)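 Lung cancer cell lines were pin-tool dosed in 1536-well plates on the day after seeding, with either a lone drug or a fixed anchor-drug dose plus five library-drug doses (not always all listed) in √10 steps. Nuclei were counted on 4× images after 5 days. Relative viability is the ratio of treated-well to vehicle-well nuclei counts, with each value a median of duplicate plates.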

ChaGo-K-1 = tested on: ChaGo-K-1
How it was run: as §1

HCC-78 = tested on: HCC-78
How it was run: as §1

HOP-62 = tested on: HOP-62
How it was run: as §1

LCLC-97TM1 = tested on: LCLC-97TM1
How it was run: as §1

LOU-NH91 = tested on: LOU-NH91
How it was run: as §1

NCI-H1355 = tested on: NCI-H1355
How it was run: as §1

NCI-H1437 = tested on: NCI-H1437
How it was run: as §1

NCI-H1755 = tested on: NCI-H1755
How it was run: as §1

NCI-H1792 = tested on: NCI-H1792
How it was run: as §1

NCI-H2009 = tested on: NCI-H2009
How it was run: as §1

NCI-H2023 = tested on: NCI-H2023
How it was run: as §1

NCI-H2085 = tested on: NCI-H2085
How it was run: as §1

NCI-H2170 = tested on: NCI-H2170
How it was run: as §1

NCI-H23 = tested on: NCI-H23
How it was run: as §1

NCI-H2405 = tested on: NCI-H2405
How it was run: as §1

NCI-H322M = tested on: NCI-H322M
How it was run: as §1

NCI-H441 = tested on: NCI-H441
How it was run: as §1

NCI-H650 = tested on: NCI-H650
How it was run: as §1

NCI-H727 = tested on: NCI-H727
How it was run: as §1

RERF-LC-KJ = tested on: RERF-LC-KJ
How it was run: as §1

SK-MES-1 = tested on: SK-MES-1
How it was run: as §1

UMC-11 = tested on: UMC-11
How it was run: as §1

SMILES: Cc1cnc(-c2cnc(NCCNc3ccc(C#N)cn3)nc2-c2ccc(Cl)cc2Cl)[nH]1 + N=C(N)NC(=N)NCCc1ccccc1 [Phenformin] (partner 250 µM)
- relative viability (ABC-1; first compound 0.08 µM): 0.259
- relative viability (ABC-1; first compound 0.253 µM): 0.246
- relative viability (ABC-1; first compound 0.8 µM): 0.271
- relative viability (ABC-1; first compound 2.53 µM): 0.195
- relative viability (ChaGo-K-1; first compound 0.08 µM): 0.493
- relative viability (ChaGo-K-1; first compound 0.253 µM): 0.375
- relative viability (ChaGo-K-1; first compound 0.8 µM): 0.44
- relative viability (ChaGo-K-1; first compound 2.53 µM): 0.413
- relative viability (HCC-78; first compound 0.08 µM): 0.804
- relative viability (HCC-78; first compound 0.253 µM): 0.675
- relative viability (HCC-78; first compound 0.8 µM): 0.636
- relative viability (HCC-78; first compound 2.53 µM): 0.645
- relative viability (HOP-62; first compound 0.08 µM): 0.754
- relative viability (HOP-62; first compound 0.253 µM): 0.596
- relative viability (HOP-62; first compound 0.8 µM): 0.685
- relative viability (HOP-62; first compound 2.53 µM): 0.427
- relative viability (LCLC-97TM1; first compound 0.08 µM): 0.481
- relative viability (LCLC-97TM1; first compound 0.8 µM): 0.535
- relative viability (LCLC-97TM1; first compound 2.53 µM): 0.462
- relative viability (LOU-NH91; first compound 0.08 µM): 0.769
- relative viability (LOU-NH91; first compound 0.253 µM): 0.674
- relative viability (LOU-NH91; first compound 0.8 µM): 0.756
- relative viability (LOU-NH91; first compound 2.53 µM): 0.567
- relative viability (NCI-H1355; first compound 0.08 µM): 0.476
- relative viability (NCI-H1355; first compound 0.253 µM): 0.45
- relative viability (NCI-H1355; first compound 0.8 µM): 0.479
- relative viability (NCI-H1355; first compound 2.53 µM): 0.446
- relative viability (NCI-H1437; first compound 0.08 µM): 0.304
- relative viability (NCI-H1437; first compound 0.253 µM): 0.357
- relative viability (NCI-H1437; first compound 0.8 µM): 0.297
- relative viability (NCI-H1437; first compound 2.53 µM): 0.295
- relative viability (NCI-H1755; first compound 0.08 µM): 0.633
- relative viability (NCI-H1755; first compound 0.253 µM): 0.604
- relative viability (NCI-H1755; first compound 0.8 µM): 0.634
- relative viability (NCI-H1755; first compound 2.53 µM): 0.572
- relative viability (NCI-H1792; first compound 0.08 µM): 0.464
- relative viability (NCI-H1792; first compound 0.8 µM): 0.329
- relative viability (NCI-H1792; first compound 2.53 µM): 0.391
- relative viability (NCI-H2009; first compound 0.08 µM): 0.499
- relative viability (NCI-H2009; first compound 0.253 µM): 0.442
- relative viability (NCI-H2009; first compound 0.8 µM): 0.489
- relative viability (NCI-H2009; first compound 2.53 µM): 0.271
- relative viability (NCI-H2023; first compound 0.08 µM): 0.436
- relative viability (NCI-H2023; first compound 0.253 µM): 0.413
- relative viability (NCI-H2023; first compound 0.8 µM): 0.422
- relative viability (NCI-H2023; first compound 2.53 µM): 0.33
- relative viability (NCI-H2085; first compound 0.08 µM): 0.735
- relative viability (NCI-H2085; first compound 0.253 µM): 0.688
- relative viability (NCI-H2085; first compound 0.8 µM): 0.686
- relative viability (NCI-H2085; first compound 2.53 µM): 0.691
- relative viability (NCI-H2170; first compound 0.08 µM): 0.422
- relative viability (NCI-H2170; first compound 0.253 µM): 0.351
- relative viability (NCI-H2170; first compound 0.8 µM): 0.412
- relative viability (NCI-H2170; first compound 2.53 µM): 0.348
- relative viability (NCI-H23; first compound 0.08 µM): 0.836
- relative viability (NCI-H23; first compound 0.253 µM): 0.69
- relative viability (NCI-H23; first compound 0.8 µM): 0.742
- relative viability (NCI-H23; first compound 2.53 µM): 0.782
- relative viability (NCI-H2405; first compound 0.08 µM): 0.385
- relative viability (NCI-H2405; first compound 0.253 µM): 0.418
- relative viability (NCI-H2405; first compound 0.8 µM): 0.398
- relative viability (NCI-H2405; first compound 2.53 µM): 0.358
- relative viability (NCI-H322M; first compound 0.08 µM): 0.815
- relative viability (NCI-H322M; first compound 0.253 µM): 0.725
- relative viability (NCI-H322M; first compound 0.8 µM): 0.753
- relative viability (NCI-H322M; first compound 2.53 µM): 0.931
- relative viability (NCI-H441; first compound 0.08 µM): 0.841
- relative viability (NCI-H441; first compound 0.253 µM): 0.756
- relative viability (NCI-H441; first compound 0.8 µM): 0.714
- relative viability (NCI-H441; first compound 2.53 µM): 0.864
- relative viability (NCI-H650; first compound 0.08 µM): 0.468
- relative viability (NCI-H650; first compound 0.253 µM): 0.438
- relative viability (NCI-H650; first compound 0.8 µM): 0.489
- relative viability (NCI-H650; first compound 2.53 µM): 0.417
- relative viability (NCI-H727; first compound 0.08 µM): 0.488
- relative viability (NCI-H727; first compound 0.253 µM): 0.478
- relative viability (NCI-H727; first compound 0.8 µM): 0.478
- relative viability (NCI-H727; first compound 2.53 µM): 0.597
- relative viability (RERF-LC-KJ; first compound 0.08 µM): 0.436
- relative viability (RERF-LC-KJ; first compound 0.253 µM): 0.445
- relative viability (RERF-LC-KJ; first compound 0.8 µM): 0.426
- relative viability (RERF-LC-KJ; first compound 2.53 µM): 0.354
- relative viability (SK-MES-1; first compound 0.08 µM): 0.643
- relative viability (SK-MES-1; first compound 0.253 µM): 0.648
- relative viability (SK-MES-1; first compound 0.8 µM): 0.72
- relative viability (SK-MES-1; first compound 2.53 µM): 0.584
- relative viability (UMC-11; first compound 0.08 µM): 0.339
- relative viability (UMC-11; first compound 0.253 µM): 0.315
- relative viability (UMC-11; first compound 0.8 µM): 0.352
- relative viability (UMC-11; first compound 2.53 µM): 0.376
